Measured values: patent US11590134B2, “Aminopyrimidine amide autophagy inhibitors and methods of use thereof” (Deciphera Pharmaceuticals, LLC, priority 2019, dated 2023)
pIC50: −log10 of the molar value.

Experiments:
[1] = target: T1, ULK2 kinase (Homo sapiens, UniProt Q8IYT8); experiment: Biochemical assay for ULK2 (coupled pyruvate kinase/lactate dehydrogenase assay); conditions: 9.7 nM ULK2 (residues 1-306), myelin basic protein substrate, 1 mM ATP; read-out: ULK2.2
T1 construct: purchased Eurofins 14-772
Experimental: Activity of ULK2 kinase was determined spectroscopically using a coupled pyruvate kinase/lactate dehydrogenase assay that continuously monitors the ATP hydrolysis-dependent oxidation of NADH (e.g., Schindler et al. Science (2000) 289: 1938-1942). Assays were conducted in 384-well plates (100 uL final volume) using 9.7 nM ULK2 (Eurofins CAT #14-772), 0.25 mg/mL myelin basic protein, 1.5 units pyruvate kinase, 2.1 units lactate dehydrogenase, 1 mM phosphoenol pyruvate, 0.28 mM NADH and 1 mM ATP in assay buffer (100 mM Tris, pH 7.5, 15 mM MgCl2, 0.5 mM DTT, 0.1% octyl-glucoside, 0.002% (w/v) BSA, and 0.002% Triton X-100). Inhibition of ULK2 was measured by adding serial diluted test compound (final assay concentration of 1% DMSO). A decrease in absorption at 340 nm was monitored continuously for 6 hours at 30° C. on a multi-mode microplate reader (BioTek). The reaction rate was calculated using the 2-3 h time frame. The reaction rate at each concentration of compound was converted to percent inhibition using controls (i.e. reaction with no test compound and reaction with a known inhibitor) and IC50 values were calculated by fitting a four-parameter sigmoidal curve to the data using Prism (GraphPad software).

[2] = system: ULK kinase substrate ATG13 (phospho-Serine 318 ATG13) in MiaPaCa-2 cells; experiment: pATG13 ELISA in mutant KRas MiaPaCa-2 cells in combination with trametinib; assay type: cell-based; conditions: MiaPaCa-2 human pancreatic cancer cells, with 250 nM trametinib, overnight
Experimental: MiaPaCa-2 human pancreatic cancer cells (10000 cells/well) were added to a 384-well tissue-culture treated plate in 50 μL of pre-warmed DMEM medium supplemented with 10% characterized fetal bovine serum (Invitrogen, Carlsbad, Calif.), 100 units/mL penicillin G, 100 μg/mL streptomycin, and 2.5% Horse Serum and allowed to grow overnight at 37° C., 5% CO2, and 95% humidity. The following day, 10 μL of media containing trametinib or DMSO as a control was added to wells. The final concentration of trametinib in wells was 250 nM. A dose response of a test compound (0.6 μL per well) was added. DMSO (0.6 μL) was added to control wells. The plate was briefly shaken to mix wells and then incubated at 37° C. overnight. The next day, the media was aspirated and cells were washed with Dulbecco's Phosphate Buffered Saline (Gibco). Cells were lysed using MPER lysis buffer (Pierce, Rockford, Ill.) containing Halt Phosphatase and Protease Inhibitors (Pierce, Rockford, Ill.) and Phosphatase inhibitor cocktail 2 (Sigma, St. Louis, Mo.) at 4° C. for 10 minutes with shaking.
Cellular levels of phospho-Serine 318 ATG13 (pATG13) were measured via an ELISA method. Total ATG13 Antibody (Cell Signaling Cat #13273) was used to coat the wells. The plate was incubated at 4° C. overnight and washed with ELISA wash buffer (Biolegend Cat #421601). The wells were then blocked with assay diluent (Biolegend Cat #421203) for 1 hour at room temperature. Plate wells were washed with ELISA wash buffer. Cell lysate was added to wells and incubated at room temperature for 2 hours. Plate wells were washed with ELISA wash buffer. Biotinylated pS318-ATG13 antibody (Rockland Immunochemicals Cat #600-401-C49) was diluted in assay diluent and added to each well and incubated at room temperature for 1 hour. Plate wells were washed with ELISA wash buffer. Streptavidin linked to horseradish peroxidase (Thermo Fisher Cat #21140) was diluted in assay diluent and added to each well and incubated at room temperature for 1 hour. Plate wells were washed with ELISA wash buffer. High sensitivity TMB substrate (Biolegend Cat #421101) was added to each well and incubated at room temperature for 20 minutes. The reaction was stopped with 2N Sulfuric Acid. The plate was analyzed at on a plate reader measuring absorbance at 450 nm and 540 nm (background). Signal was calculated by first subtracting the background absorbance at 540 nm from the absorbance at 450 nm for each well. Next, the background corrected absorbance at 450 nm from blank wells was subtracted from test wells. Data was compared to control wells to determine % ATG13 phosphorylation. GraphPad Prism was used to calculate IC50 values.

[3] = target: T2, LRRK2 kinase (Homo sapiens, UniProt Q5S007); experiment: Biochemical assay for LRRK2 (coupled pyruvate kinase/lactate dehydrogenase assay); conditions: 26.4 nM LRRK2 (residues 970-2528), peptide substrate, 1 mM ATP
T2 construct: (residues 970-2528; ID NO; 4); purchased Thermo Fisher
Experimental: Activity of LRRK2 kinase was determined spectroscopically using a coupled pyruvate kinase/lactate dehydrogenase assay that continuously monitors the ATP hydrolysis-dependent oxidation of NADH (e.g., Schindler et al. Science (2000) 289: 1938-1942). Assays were conducted in 384-well plates (100 uL final volume) using 26.4 nM LRRK2 (Thermo Fisher), 0.1 mM peptide substrate (RLGRDKYKTLRQIRQ (SEQ ID NO: 6)), 1.5 units pyruvate kinase, 2.1 units lactate dehydrogenase, 1 mM phosphoenol pyruvate, 0.28 mM NADH and 1 mM ATP in assay buffer (100 mM Tris, pH 7.5, 15 mM MgCl2, 0.5 mM DTT, 0.004% (w/v) BSA, and 0.004% Triton X-100). Inhibition of LRRK2 was measured by adding serial diluted test compound (final assay concentration of 1% DMSO). A decrease in absorption at 340 nm was monitored continuously for 6 hours at 30° C. on a multi-mode microplate reader (BioTek). The reaction rate was calculated using the 2-3 h time frame. The reaction rate at each concentration of compound was converted to percent inhibition using controls (i.e. reaction with no test compound and reaction with a known inhibitor) and IC50 values were calculated using software routines in Prism (GraphPad software).

T2 sequence (Q5S007 with tags, fused parts or gaps): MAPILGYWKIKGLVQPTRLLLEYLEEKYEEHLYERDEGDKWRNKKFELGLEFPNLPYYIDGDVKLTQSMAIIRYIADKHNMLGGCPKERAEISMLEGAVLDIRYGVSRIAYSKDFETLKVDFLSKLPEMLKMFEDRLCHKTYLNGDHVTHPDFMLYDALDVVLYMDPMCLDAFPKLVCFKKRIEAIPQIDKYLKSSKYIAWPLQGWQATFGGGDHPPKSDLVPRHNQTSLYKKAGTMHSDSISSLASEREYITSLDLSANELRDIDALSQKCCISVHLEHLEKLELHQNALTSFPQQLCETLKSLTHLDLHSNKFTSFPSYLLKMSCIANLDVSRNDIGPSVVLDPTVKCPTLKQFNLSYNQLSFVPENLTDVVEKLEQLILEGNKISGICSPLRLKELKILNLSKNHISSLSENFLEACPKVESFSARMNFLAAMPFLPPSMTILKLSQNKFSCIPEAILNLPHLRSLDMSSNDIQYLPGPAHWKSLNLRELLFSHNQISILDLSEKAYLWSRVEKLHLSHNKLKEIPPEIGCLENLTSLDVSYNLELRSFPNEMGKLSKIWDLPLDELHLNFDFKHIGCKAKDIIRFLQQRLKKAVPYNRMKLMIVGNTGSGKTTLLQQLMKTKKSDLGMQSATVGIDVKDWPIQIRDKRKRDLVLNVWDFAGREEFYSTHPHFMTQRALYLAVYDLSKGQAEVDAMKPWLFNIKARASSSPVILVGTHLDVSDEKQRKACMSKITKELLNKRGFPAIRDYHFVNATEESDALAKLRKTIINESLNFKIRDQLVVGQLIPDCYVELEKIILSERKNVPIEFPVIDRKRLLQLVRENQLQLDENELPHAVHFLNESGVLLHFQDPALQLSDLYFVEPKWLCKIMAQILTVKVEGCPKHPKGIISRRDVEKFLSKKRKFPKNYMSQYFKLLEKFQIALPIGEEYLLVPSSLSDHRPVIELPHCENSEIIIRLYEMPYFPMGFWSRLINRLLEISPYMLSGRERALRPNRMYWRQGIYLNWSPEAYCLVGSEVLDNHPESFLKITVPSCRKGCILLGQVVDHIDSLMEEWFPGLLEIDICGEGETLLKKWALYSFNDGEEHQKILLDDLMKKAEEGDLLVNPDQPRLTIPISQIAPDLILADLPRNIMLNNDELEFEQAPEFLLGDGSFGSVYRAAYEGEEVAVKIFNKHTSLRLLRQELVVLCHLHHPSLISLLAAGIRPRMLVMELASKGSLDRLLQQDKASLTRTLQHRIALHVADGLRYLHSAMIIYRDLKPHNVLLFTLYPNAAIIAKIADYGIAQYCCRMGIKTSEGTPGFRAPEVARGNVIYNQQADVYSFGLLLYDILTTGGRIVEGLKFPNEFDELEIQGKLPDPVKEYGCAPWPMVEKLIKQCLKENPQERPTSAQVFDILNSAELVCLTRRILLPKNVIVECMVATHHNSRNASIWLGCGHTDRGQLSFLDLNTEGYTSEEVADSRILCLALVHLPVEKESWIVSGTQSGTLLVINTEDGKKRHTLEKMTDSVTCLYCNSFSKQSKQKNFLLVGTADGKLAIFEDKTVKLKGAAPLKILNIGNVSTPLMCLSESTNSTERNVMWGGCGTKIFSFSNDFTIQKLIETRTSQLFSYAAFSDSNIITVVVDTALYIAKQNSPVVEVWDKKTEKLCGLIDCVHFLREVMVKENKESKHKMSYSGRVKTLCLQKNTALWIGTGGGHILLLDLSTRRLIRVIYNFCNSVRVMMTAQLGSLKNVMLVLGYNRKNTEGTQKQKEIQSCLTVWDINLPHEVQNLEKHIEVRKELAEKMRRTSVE
T1 sequence (Q8IYT8 with tags, fused parts or gaps): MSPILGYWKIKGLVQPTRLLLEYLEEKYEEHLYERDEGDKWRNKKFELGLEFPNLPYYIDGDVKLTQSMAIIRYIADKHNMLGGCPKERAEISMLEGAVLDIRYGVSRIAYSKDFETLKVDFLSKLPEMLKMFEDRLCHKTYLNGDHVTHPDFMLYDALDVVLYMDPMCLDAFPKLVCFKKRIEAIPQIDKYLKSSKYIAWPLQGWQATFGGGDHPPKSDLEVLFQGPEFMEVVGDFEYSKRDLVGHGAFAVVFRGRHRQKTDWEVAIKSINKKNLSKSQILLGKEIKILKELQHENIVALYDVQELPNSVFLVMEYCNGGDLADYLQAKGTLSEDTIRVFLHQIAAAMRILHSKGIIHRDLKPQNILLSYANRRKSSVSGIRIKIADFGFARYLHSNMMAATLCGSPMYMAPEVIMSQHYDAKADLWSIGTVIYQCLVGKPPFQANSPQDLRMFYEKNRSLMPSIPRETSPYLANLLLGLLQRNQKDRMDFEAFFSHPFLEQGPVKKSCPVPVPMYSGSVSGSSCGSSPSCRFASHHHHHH

pIC50 [1] | pIC50 [2] | pIC50 [3] | Structure (SMILES)
7.00 to 7.60 | 7.00 to 8.00 | 7.00 to 9.00 | CC(C)c1cc(N2CCN(C)CC2)ccc1Nc1ncc(C(F)(F)F)c(NCCCNC(=O)C2CCC2)n1 [Example 3]
7.00 to 7.60 | 6.52 to 7.00 | 7.00 to 9.00 | COc1cc(N2CCN(C)CC2)ccc1Nc1ncc(C(F)(F)F)c(NCCCNC(=O)C2CCC2)n1 [Example 4]
6.30 to 7.00 | 6.52 to 7.00 | 4.70 to 6.22 | CC(C)c1cc(N2CCN(C)CC2)ccc1Nc1ncc(Br)c(NCCCNC(=O)C2CCC2)n1 [Example 8]
6.30 to 7.00 | 6.52 to 7.00 | 6.52 to 7.00 | Cc1cc(N2CCN(C)CC2)ccc1Nc1ncc(C(F)(F)F)c(NCCCNC(=O)C(C)(C)C)n1 [Example 12]
7.60 to 9.00 | 7.00 to 8.00 | 6.52 to 7.00 | CN1CCN(c2ccc(Nc3ncc(C(F)(F)F)c(NCCCNC(=O)C4CCC4)n3)c(C3CC3)c2)CC1 [Example 14]
